Experimental data as given in ChEMBL document CHEMBL5518159, “Thiazole-based analogues as potential antibacterial agents against methicillin-resistant Staphylococcus aureus (MRSA) and their SAR elucidation” (Eur J Med Chem, 2023).
pIC50: −log10 of the molar value. ≈ marks a conversion by molar mass, not a printed value.

Key:
Staphylococcus aureus [1] = experiment: Antimicrobial activity against […] Staphylococcus aureus ATCC 29213 assessed as reduction in bacterial viability incubated for 18 hrs by CLSI protocol based Muller Hinton broth based dilution assay; format: functional
Enterococcus faecium = experiment: Antimicrobial activity against Vancomycin-resistant Enterococcus faecium assessed as reduction in bacterial viability incubated for 18 hrs by CLSI protocol based Muller Hinton broth based dilution assay; format: functional
Staphylococcus aureus [2] = experiment: Antibacterial activity against methicillin-resistant Staphylococcus aureus ATCC 33592 assessed as reduction in microbial growth incubated for 16 to 20 hrs by CLSI based two-fold serial dilution method; format: functional; conditions: time 16-20 hrs
Staphylococcus aureus [3] = experiment: Antibacterial activity against methicillin-resistant Staphylococcus aureus ATCC 33592 assessed as reduction in bacterial growth; format: functional
Staphylococcus aureus [4] = experiment: Antibacterial activity against Methicillin-resistant Staphylococcus aureus […] assessed as reduction in microbial growth; format: functional
Escherichia coli [5] = experiment: Antibacterial activity against Escherichia coli ATCC 25922 assessed as reduction in bacterial growth by broth microdilution method; format: functional
Escherichia coli [6] = experiment: Antibacterial activity against Escherichia coli ATCC 35210 assessed as reduction in bacterial growth measured for 24 hrs by broth micro-dilution method; format: functional
Staphylococcus aureus [7] = experiment: Antimicrobial activity against methicillin-resistant Staphylococcus aureus assessed as inhibition of microbial growth incubated for 16 hrs by microdilution method; format: functional, organism-based
Staphylococcus aureus [8] = experiment: Antimicrobial activity against Methicillin-resistant Staphylococcus aureus ATCC 33591 assessed as bacterial growth inhibition measured after 18 hrs by CLSI based Muller Hinton broth microdilution method; format: functional
Staphylococcus aureus [9] = experiment: Antimicrobial activity against Methicillin-resistant Staphylococcus aureus ATCC 43300 assessed as bacterial growth inhibition measured after 18 hrs by CLSI based Muller Hinton broth microdilution method; format: functional
Staphylococcus aureus [10] = experiment: Antimicrobial activity against Methicillin-resistant Staphylococcus aureus ATCC BAA41 assessed as bacterial growth inhibition measured after 18 hrs by CLSI based Muller Hinton broth microdilution method; format: functional
Staphylococcus aureus [11] = experiment: Antibacterial activity against vancomycin-resistant Staphylococcus aureus assessed as bacterial growth inhibition incubated for 18 to 24 hrs by CLSI-based microdilution method; format: functional; conditions: time 18-24 hrs
Staphylococcus aureus [12] = experiment: Antibacterial activity against Methicillin-resistant Staphylococcus aureus AUMC 261 assessed as bacterial growth inhibition incubated for 24 hrs by broth microdilution analysis; format: functional
Staphylococcus aureus [13] = experiment: Antimicrobial activity against Methicillin-resistant Staphylococcus aureus ATCC 43300 assessed as bacterial growth inhibition incubated for 18 hrs by broth micro-dilution method; format: functional
Staphylococcus aureus [14] = experiment: Antibacterial activity against […] Staphylococcus aureus ATCC 6538 assessed as bacterial growth inhibition incubated for 24 hrs by broth micro-dilution method; format: functional
Staphylococcus aureus [15] = experiment: Antibacterial activity against Staphylococcus aureus ATCC 49444 assessed as reduction in microbial growth; format: functional
Staphylococcus aureus [16] = experiment: Antibacterial activity against methicillin-resistant Staphylococcus aureus ATCC 43300 assessed as reduction in bacterial growth by CLSI protocol based broth microdilution method; format: functional
Staphylococcus aureus [17] = experiment: Antibacterial activity against methicillin-resistant Staphylococcus aureus ATCC 43300 assessed as bacterial growth inhibition incubated for 24 hrs by broth dilution method; format: functional
Staphylococcus aureus [18] = experiment: Antibacterial activity against Methicillin-resistant Staphylococcus aureus ATCC 43300 assessed as reduction in bacterial growth measured for 24 hrs by CLSI based broth microdilution method; format: functional
Staphylococcus aureus [19] = experiment: Antibacterial activity against Methicillin-sensitive Staphylococcus aureus ATCC 25923 assessed as reduction in bacterial growth incubated for 24 hrs by CLSI based broth microdilution method; format: functional
Staphylococcus aureus [20] = experiment: Antibacterial activity against Methicillin-sensitive Staphylococcus aureus ATCC 25923 assessed as reduction in microbial growth by CLSI based broth microdilution method; format: functional
Staphylococcus aureus [21] = experiment: Antibacterial activity against clinical isolate Methicillin resistant Staphylococcus aureus 2658 RCMB assessed as reduction in microbial growth incubated for 16 to 24 hrs by CLSI-based Muller Hinton broth based microdilution method; format: functional; conditions: time 16-24 hrs
DNA gyrase = DNA gyrase (Staphylococcus aureus, UniProt P0A0K8+P20831); experiment: Inhibition of Staphylococcus aureus DNA gyrase incubated for 30 mins by fluorescence based analysis; format: protein-complex assay
Staphylococcus aureus [22] = experiment: Antibacterial activity against Staphylococcus aureus ATCC 43300 assessed as microbial inhibition incubated for 24 hrs by broth micro-dilution method; format: functional
Staphylococcus aureus [23] = experiment: Antibacterial activity against Methicillin-resistant Staphylococcus aureus assessed as reduction of microbial growth by Muller Hinton broth based dilution assay; format: functional
Staphylococcus aureus [24] = experiment: Antibacterial activity against methicillin-resistant Staphylococcus aureus assessed as inhibition of bacterial growth measured after 24 hrs by broth micro-dilution method; format: functional
Staphylococcus aureus [25] = experiment: Antibacterial activity against […] Staphylococcus aureus ATCC 29213 assessed as reduction in bacterial growth incubated for 16 to 20 hrs by CLSI based two-fold serial dilution method; format: functional; conditions: time 16-20 hrs
Escherichia coli [26] = experiment: Antibacterial activity against Escherichia coli ATCC 35210 assessed as reduction in microbial growth; format: functional
Escherichia coli [27] = experiment: Antibacterial activity against Escherichia coli ATCC 25922 assessed as reduction in bacterial growth incubated for 18 to 24 hrs by broth microdilution method; format: functional; conditions: time 18-24 hrs
Staphylococcus aureus [28] = experiment: Antibacterial activity against Methicillin-resistant Staphylococcus aureus […] assessed as reduction in microbial growth incubated for 18 to 24 hrs by broth micro-dilution method; format: functional; conditions: time 18-24 hrs

Sequence of DNA gyrase (P0A0K8 whole entry): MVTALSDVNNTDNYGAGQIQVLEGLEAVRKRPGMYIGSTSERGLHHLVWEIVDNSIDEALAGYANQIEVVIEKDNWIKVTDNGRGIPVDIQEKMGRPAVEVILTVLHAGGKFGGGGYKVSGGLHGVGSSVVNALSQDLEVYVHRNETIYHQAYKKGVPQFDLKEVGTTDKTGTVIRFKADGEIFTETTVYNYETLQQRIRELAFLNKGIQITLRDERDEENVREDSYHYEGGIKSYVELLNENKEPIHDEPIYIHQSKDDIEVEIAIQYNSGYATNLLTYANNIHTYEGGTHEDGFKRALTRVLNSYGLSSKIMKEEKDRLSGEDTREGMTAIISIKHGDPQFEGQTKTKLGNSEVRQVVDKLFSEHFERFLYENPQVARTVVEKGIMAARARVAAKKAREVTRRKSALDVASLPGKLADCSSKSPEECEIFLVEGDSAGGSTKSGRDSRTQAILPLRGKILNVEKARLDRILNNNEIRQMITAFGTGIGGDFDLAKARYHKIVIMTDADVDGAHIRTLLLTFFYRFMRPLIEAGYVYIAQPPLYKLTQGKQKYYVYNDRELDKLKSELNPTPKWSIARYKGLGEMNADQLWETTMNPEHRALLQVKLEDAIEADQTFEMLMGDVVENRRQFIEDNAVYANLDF
Sequence of DNA gyrase (P20831 whole entry): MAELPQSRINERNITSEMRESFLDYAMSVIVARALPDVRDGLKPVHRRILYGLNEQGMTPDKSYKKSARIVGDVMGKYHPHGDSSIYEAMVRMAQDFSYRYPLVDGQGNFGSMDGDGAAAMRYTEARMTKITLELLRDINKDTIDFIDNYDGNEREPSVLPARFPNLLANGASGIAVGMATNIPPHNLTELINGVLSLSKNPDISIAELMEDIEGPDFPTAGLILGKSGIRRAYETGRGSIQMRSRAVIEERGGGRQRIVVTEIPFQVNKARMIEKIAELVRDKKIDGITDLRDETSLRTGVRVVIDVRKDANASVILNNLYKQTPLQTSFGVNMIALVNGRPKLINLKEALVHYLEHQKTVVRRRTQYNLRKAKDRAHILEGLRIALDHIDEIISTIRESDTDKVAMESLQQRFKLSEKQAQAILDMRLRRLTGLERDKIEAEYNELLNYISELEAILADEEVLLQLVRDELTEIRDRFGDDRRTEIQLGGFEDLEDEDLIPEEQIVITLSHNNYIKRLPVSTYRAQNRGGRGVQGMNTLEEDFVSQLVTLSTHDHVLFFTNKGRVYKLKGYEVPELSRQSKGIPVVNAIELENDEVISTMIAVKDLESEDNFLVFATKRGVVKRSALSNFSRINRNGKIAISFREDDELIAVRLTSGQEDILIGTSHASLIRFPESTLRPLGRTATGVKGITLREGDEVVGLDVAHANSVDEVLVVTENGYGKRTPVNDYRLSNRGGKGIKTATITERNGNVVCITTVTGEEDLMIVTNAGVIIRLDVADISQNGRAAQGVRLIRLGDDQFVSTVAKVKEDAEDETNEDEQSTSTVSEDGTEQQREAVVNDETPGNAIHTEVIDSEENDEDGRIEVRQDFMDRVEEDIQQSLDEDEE

CCCN(CCC)CCCN1/C(=C/c2c3ccccc3[n+](C)c3c2oc2ccccc23)Sc2ccccc21.[I-]
MIC (Staphylococcus aureus [1]): 0.25 µg/mL | MIC (Enterococcus faecium): 0.25 µg/mL

CCn1cc(-c2csc(N)n2)c(=O)c2cc(F)c(N3CCN(Cc4ccc(Cl)cc4Cl)CC3)cc21
MIC (Staphylococcus aureus [2]): 8 µg/mL

Cc1[nH]c2ccc(Cl)cc2c1-c1csc(N)n1
MIC (Staphylococcus aureus [3]): 100 µg/mL (≈ 379 µM) | MIC (Staphylococcus aureus [4]): 230 µg/mL | MIC (Escherichia coli [5]): 60 µg/mL (≈ 227 µM) | MIC (Escherichia coli [6]): 60 µg/mL (≈ 227 µM)

CO/N=C(/COc1ccc2c(C)cc(=O)oc2c1)c1nccs1
IC50 (Staphylococcus aureus [7]): 1 µg/mL

CN1/C(=C/c2cc(/C=C/c3cccnc3)[n+](C)c3ccccc23)Sc2ccccc21.[I-]
MIC (Staphylococcus aureus [8]): 1.5 µg/mL | MIC (Staphylococcus aureus [9]): 1.5 µg/mL | MIC (Staphylococcus aureus [10]): 1.5 µg/mL

O=C(O)CCN(c1ccc(Nc2ccccc2)cc1)c1nc(-c2ccc(F)cc2)cs1
MIC (Staphylococcus aureus [11]): 1 µg/mL (≈ 2.31 µM)

CCn1cc(-c2csc(N)n2)c(=O)c2cc(F)c(N3CCN(Cc4ccc(Cl)cc4)CC3)cc21
MIC (Staphylococcus aureus [2]): 8 µg/mL

O=C(O)c1cn(C2CC2)c2cc(N3CCN(C(=O)CN4C(=O)S/C(=C\c5ccoc5)C4=O)CC3)c(F)cc2c1=O
MIC (Staphylococcus aureus [12]): 2.88 µg/mL (≈ 5.08 µM)

O=C(O)c1cn(C2CC2)c2cc(N3CCNCC3)c(F)cc2c1=O [CIPROFLOXACIN]
MIC (Staphylococcus aureus [12]): 0.2 µg/mL (≈ 0.604 µM) | MIC (Staphylococcus aureus [13]): 32 µg/mL (≈ 96.6 µM)

CCOc1ccc2nc(N3C(=O)CSC3c3ccc(OC)cc3)sc2c1 (stereo not given)
MIC (Staphylococcus aureus [14]): 90 µg/mL (≈ 233 µM)

O=c1c2ccccc2nc(C(c2nccs2)c2nccs2)n1-c1ccc(F)cc1
MIC (Staphylococcus aureus [15]): 32 µg/mL

O=C(O)c1cn(C2CC2)c2cc(N3CCN(C(=O)CN4C(=O)S/C(=C\c5ccc(F)cc5)C4=O)CC3)c(F)cc2c1=O
MIC (Staphylococcus aureus [12]): 2.88 µg/mL (≈ 4.84 µM)

O=C1CSC(c2ccc([N+](=O)[O-])cc2)N1c1nc2ccc(OC(F)(F)F)cc2s1 (stereo not given)
MIC (Staphylococcus aureus [16]): 250 µg/mL (≈ 566 µM) | MBC (Staphylococcus aureus [17]): 120 µg/mL (≈ 272 µM)

CC(=O)c1sc(-c2cccnc2)nc1C
MIC50 (Staphylococcus aureus [18]): 4 µg/mL (≈ 18.3 µM) | MIC50 (Staphylococcus aureus [19]): 2 µg/mL (≈ 9.16 µM) | MIC90 (Staphylococcus aureus [20]): 4 µg/mL

Cc1nc(-c2ccc3ccccc3c2)sc1-c1nnc(NC(=N)N2CCN(C)CC2)o1
MIC (Staphylococcus aureus [21]): 1.9 µg/mL

O=C(O)CCN(c1ccc(Nc2ccccc2)cc1)c1nc(-c2ccc(Cl)cc2)cs1
MIC (Staphylococcus aureus [11]): 1 µg/mL (≈ 2.22 µM)

O=S(=O)(c1ccc2nc3s/c(=N/N=C\c4cccs4)n(-c4ccc(Cl)cc4)c3nc2c1)N1CCOCC1
pIC50 (DNA gyrase): 4.98 | MIC (Staphylococcus aureus [22]): 1.25 µg/mL (≈ 2.19 µM)

COc1ccc(/C=C(\Oc2ccc3c(CN(CCO)CCO)cc(=O)oc3c2)C(=O)c2nccs2)cc1
MIC (Staphylococcus aureus [23]): 2 µg/mL

Cc1cnc(/C=c2\[nH]c(=O)/c(=C\c3cccc(F)c3)s2)s1
MIC (Staphylococcus aureus [24]): 40 µg/mL (≈ 126 µM)

O=C1CSC(c2ccc(Cl)cc2)N1c1nc2ccc(OC(F)(F)F)cc2s1 (stereo not given)
MIC (Staphylococcus aureus [16]): 250 µg/mL (≈ 580 µM) | MBC (Staphylococcus aureus [17]): 120 µg/mL (≈ 279 µM)

CCCCCCNc1ccc(S(=O)(=O)CC(=O)c2nccs2)cc1
MIC (Staphylococcus aureus [25]): 1 µg/mL (≈ 2.73 µM)

O=C1CSC(c2c(F)cccc2F)N1c1nc2ccc(OC(F)(F)F)cc2s1 (stereo not given)
MIC (Staphylococcus aureus [16]): 250 µg/mL (≈ 578 µM) | MBC (Staphylococcus aureus [17]): 120 µg/mL (≈ 278 µM)

CC(C)Cc1nc(N2CCN(CC(=O)Nc3nccs3)CC2)c(C#N)c2c1CCC2
MIC (Escherichia coli [26]): 230 µg/mL

COc1ccc(N/N=C2/S/C(=N\N=C3/C(=O)Nc4ccc(Br)cc43)N=C2C)cc1
MIC (Escherichia coli [27]): 1 µg/mL (≈ 2.12 µM) | MIC (Staphylococcus aureus [28]): 1 µg/mL

O=C(O)c1cn(C2CC2)c2cc(N3CCN(C(=O)CN4C(=O)S/C(=C\c5ccc([N+](=O)[O-])cc5)C4=O)CC3)c(F)cc2c1=O
MIC (Staphylococcus aureus [12]): 2.88 µg/mL (≈ 4.63 µM)

Cc1cnc(/C=c2\[nH]c(=O)/c(=C\c3ccc(Br)cc3)s2)s1
MIC (Staphylococcus aureus [24]): 40 µg/mL (≈ 105 µM)
